# Test results reported in patent US8431525B2, “Coelenteramide analogs” (JNC Corporation, priority 2009, dated 2013).
# Legend:
# [1] = Fluorescence spectrum and fluorescence quantum yield of CTMD analogs at 750 nM (Example 1); assay type: physicochemical; conditions: for Fluorescence quantum yield (PB) / λmax (PB)/nm: 67 mM phosphate buffer pH 7.4, 750 nM; for Fluorescence quantum yield (PB) / λmax (PB)/nm / λmax (MeOH)/nm / Fluorescence quantum yield (MeOH): 25° C., excited at 330 nm; for Fluorescence quantum yield (PB) / Fluorescence quantum yield (MeOH): relative to quinine sulfate 0.55; for λmax (PB)/nm / λmax (MeOH)/nm: fluorescence emission; for λmax (MeOH)/nm / Fluorescence quantum yield (MeOH): methanol, 750 nM; for fluorescence properties compared with known CTMD (c-4) or h-CTMD (c-13): from TABLE 1
# Protocol: The fluorescence quantum yield of each CTMD analog synthesized was determined by the following procedure. The fluorescence spectrum was measured at 25° C. using a spectrofluorometer FP-6500 of JASCO (JASCO Corp., Tokyo). Specifically, the CTMD analog was dissolved in methanol (MeOH) or in 67 mM phosphate buffer (PB) (pH 7.4) at a final concentration of 750 nM using a quartz cell (light path length of 10 mm). Measurement was performed 3 times at the excited wavelength of 330 nm, emission/excitation band width of 3 nm, response of 0.5 second and scanning rate of 100 nm/min. The average was taken as the fluorescence spectrum of the compound. The fluorescence quantum yield was determined after the spectrum was corrected.
# Quinine sulfate was used as a standard for determining the fluorescence quantum yield. After quinine sulfate (Wako Pure Chemical Industries) was dissolved in 0.1N sulfuric acid aqueous solution, measurement was performed at the excitation light of 366 nm under the conditions for fluorescence measurements described above. The relative fluorescence quantum yield (fluorescence intensity) of the compound was calculated relative to the quantum yield of quinine sulfate as being 0.55.
SMILES,Fluorescence quantum yield (PB) [1],λmax (PB)/nm [1] [nm],λmax (MeOH)/nm [1] [nm],fluorescence properties compared with known CTMD (c-4) or h-CTMD (c-13) [1],Fluorescence quantum yield (MeOH) [1],melting point
"O=S(=O)(Cc1ccccc1)Nc1ncc(-c2ccccc2)nc1Cc1ccccc1 [c-37, 3-Benzyl-2-benzylsulfonylamino-5-phenylpyrazine]",0.227,419.5,402.5,different fluorescence properties,0.196,207 to 208.5 °C
"O=S(=O)(Cc1ccccc1)N(c1ncc(-c2ccccc2)nc1Cc1ccccc1)S(=O)(=O)Cc1ccccc1 [c-42, 3-Benzyl-2-bis(benzylsulfonyl)amino-5-phenylpyrazine]",0.011,420.5,398.5,different fluorescence properties,0.180,71.5 to 74.5 °C
"CS(=O)(=O)Nc1ncc(-c2ccc(O)cc2)nc1Cc1ccccc1 [c-34, 3-Benzyl-5-(4-hydroxyphenyl)-2-(methanesulfonylamino)pyrazine]",0.096,437,429,different fluorescence properties,0.056,
"O=C(Cc1ccccc1)Nc1ncc(-c2ccc(O)cc2)nc1Cc1ccccc1 [c-13, 3-Benzyl-5-(4-hydroxyphenyl)-2-(phenylacetylamino)pyrazine]",0.003,399,424.5,,0.010,259 to 261 °C
"COc1ccc(-c2cnc(NC(=S)Cc3ccccc3)c(Cc3ccccc3)n2)cc1 [c-17, 3-Benzyl-5-(4-methoxyphenyl)-2-(phenylthioacetylamino)pyrazine]",0.003,445,417.5,different fluorescence properties,0.003,45 to 47 °C
"COc1ccc(-c2cnc(NC(=O)Cc3ccccc3)c(Cc3ccccc3)n2)cc1 [c-16, 3-Benzyl-5-(4-methoxyphenyl)-2-(phenylacetylamino)pyrazine]",0.181,450,415,,0.342,197.5 to 202 °C
"CC(=O)Oc1ccc(-c2cnc(N(S(=O)(=O)Cc3ccc(I)cc3)S(=O)(=O)Cc3ccc(I)cc3)c(Cc3ccccc3)n2)cc1 [c-46, 5-(4-Acetoxyphenyl)-3-benzyl-2-bis(4-iodobenzylsulfonyl)aminopyrazine]",,,,,,166 to 167 °C
"CC(=O)Oc1ccc(-c2cnc(NS(=O)(=O)Cc3ccccc3)c(Cc3ccccc3)n2)cc1 [c-32, 5-(4-Acetoxyphenyl)-3-benzyl-2-(benzylsulfonylamino)pyrazine]",0.239,420,404,different fluorescence properties,0.234,240 to 241 °C
"COc1ccc(-c2cnc(NC(C)=O)c(Cc3ccccc3)n2)cc1 [c-24, 2-Acetylamino-3-benzyl-5-(4-methoxyphenyl)pyrazine]",0.199,450.5,415.5,,0.345,
"CC(=O)Oc1ccc(-c2cnc(N(S(=O)(=O)Cc3ccccc3)S(=O)(=O)Cc3ccccc3)c(Cc3ccccc3)n2)cc1 [c-20, 5-(4-Acetoxyphenyl)-3-benzyl-2-bis(benzylsulfonyl)aminopyrazine]",0.026,420,399.5,different fluorescence properties,0.185,84 to 86.5 °C
"CC(=O)Oc1ccc(-c2cnc(N)c(Cc3ccccc3)n2)cc1 [c-19, 5-(4-Acetoxyphenyl)-2-amino-3-benzylpyrazine]",,,,,,183.5 to 185.5 °C
"CC(=O)Nc1ncc(-c2ccc(OC(C)=O)cc2)nc1Cc1ccccc1 [c-33, 5-(4-Acetoxyphenyl)-2-acetylamino-3-benzylpyrazine]",0.154,384,375,,0.085,215.5 to 217 °C (dec.)
"CC(=O)Oc1ccc(-c2cnc(NC(=O)Cc3ccccc3)c(Cc3ccccc3)n2)cc1 [c-30, 5-(4-Acetoxyphenyl)-3-benzyl-2-(phenylacetylamino)pyrazine]",0.040,391,373.5,,0.008,228 to 231 °C
"CC(=O)Oc1ccc(CC(=O)Nc2ncc(-c3ccc(OC(C)=O)cc3)nc2Cc2ccccc2)cc1 [c-29, 5-(4-Acetoxyphenyl)-2-(4-acetoxyphenyl)acetylamino-3-benzylpyrazine]",0.029,386.5,376.5,,0.086,225 to 227 °C
"O=S(=O)(Cc1ccccc1)Nc1ncc(-c2ccc(O)cc2)nc1Cc1ccccc1 [c-15, 3-Benzyl-2-benzylsulfonylamino-5-(4-hydroxyphenyl)pyrazine]",0.137,435.5,429.5,different fluorescence properties,0.066,144 to 147 °C (dec.)
"CC(=O)Oc1ccc(-c2cnc(N(S(=O)(=O)c3ccc([N+](=O)[O-])cc3)S(=O)(=O)c3ccc([N+](=O)[O-])cc3)c(Cc3ccccc3)n2)cc1 [c-40, 5-(4-Acetoxyphenyl)-3-benzyl-2-bis(4-nitrophenylsulfonyl)aminopyrazine]",0.021,415,407.5,different fluorescence properties,0.004,227 to 229.5 °C (dec.)
"Cc1ccc(S(=O)(=O)Nc2ncc(-c3ccc(O)cc3)nc2Cc2ccccc2)cc1 [c-35, 3-Benzyl-5-(4-hydroxyphenyl)-2-[(4-methylphenyl)sulfonylamino]pyrazine]",0.107,435,430.5,different fluorescence properties,0.069,181 to 182.5 °C
"COc1ccc(-c2cnc(N(S(=O)(=O)Cc3ccccc3)S(=O)(=O)Cc3ccccc3)c(Cc3ccccc3)n2)cc1 [c-21, 3-Benzyl-2-bis(benzylsulfonyl)amino-5-(4-methoxyphenyl)pyrazine]",0.059,421.5,417,different fluorescence properties,0.303,78 to 80 °C
